Assay results as given in patent US20230127944A1, “BROAD-SPECTRUM CARBAPENEMS” (priority 2019, published 2023).

System: P. aeruginosa 35151 (hyper-permeable strain)
Assay: broth microdilution MIC assay, P. aeruginosa 35151
Format: cell-based
Conditions: Pseudomonas aeruginosa, read-out: MIC, P. aeruginosa 35151
How it was run: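 MIC is the lowest compound concentration with no visible growth after 16-20 h at 37° C. Testing followed CLSI microdilution, with 2-fold compound series in Mueller-Hinton broth supplemented with divalent cations and a starting inoculum of 5×10^5 CFU/mL.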

Compound: C[C@@H](O)[C@H]1C(=O)N2C(C(=O)O)=C(S[C@@H]3CCN(C[C@H]4CC[C@H](NC(=N)N)CC4)C3)[C@H](C)[C@H]12 [Example 28, (4R,5S,6S)-3-(((R)-1-(((1R,4R)-4-guanidinocyclohexyl)methyl)pyrrolidin-3-yl)thio)-6-((R)-1-hydroxyethyl)-4-methyl-7-oxo-1-azabicyclo[3.2.0]hept-2-ene-2-carboxylic acid]
- MIC: < 1 µg/mL
